The subject of assay [1] is IL-12. The experiment in a line: TLR-induced cytokine release in human PBMC: IL-12 (ELISA). Conditions: human PBMC stimulated using a TLR ligand, incubated 18 hours with test substance, supernatant ELISA. Format: cell-based. On the procedure: (§1) TLR-Induced Cytokine Release in Human “Peripheral Blood Mononuclear Cells” (PBMC)
(§2) PBMCs isolated from human whole blood are stimulated using a TLR ligand. The cytokine determination is carried out by means of ELISA kits; a proliferation/cell metabolism determination is carried out using Alamar Blue.
(§3) For the cell preparation, about 200 ml of blood are treated with an anticoagulant (e.g. citrate Monovettes). Per Leucosep tube, 15 ml of Histopaque (room temperature, RT) are poured in and pressed downwards through the frit employed by brief initial centrifugation (one minute at 1000×g, RT). 20 ml of blood are added to the tubes prepared in this way and centrifuged at 800×g for 15 minutes (RT). After centrifugation, the following layered arrangement results from the top to the bottom: plasma—PBMC—Histopaque—filter disc—Histopaque—erythrocytes and granulocytes. The supernatant plasma is aspirated. The PBMC are transferred together with the underlying Histopaque to a new 50 ml tube, the contents of two Leucosep tubes always being added to one 50 ml tube. The 50 ml tubes are then filled to 50 ml with PBS. This cell suspension is centrifuged at 300×g (RT) for 10 minutes. The liquid supernatant is tipped off and the cell pellet is resuspended with a little PBS and subsequently filled to 50 ml with PBS. This washing step is repeated twice. The resulting pellet is taken up in a defined volume of medium (with additives). For the testing of the substances, PBMC are incubated for 18 hours with titrated concentrations of the test substances, e.g. in the presence or absence of TLR ligands. On the next day, the supernatants are investigated for the content of IL-12, TNF-alpha or other chemokines by means of specific ELISA. The metabolic activity of the treated cells is determined with the aid of Alamar Blue.
(An ELISA detects its analyte on a solid surface through an enzyme-linked reagent.)

Assay [2] deals with TNF-α. The experiment in a line: TLR-induced cytokine release in human PBMC: TNF-alpha (ELISA). Format: cell-based. The following applies: human PBMC stimulated using a TLR ligand, incubated 18 hours with test substance, supernatant ELISA. On the procedure:
as §1, §2, §3

The structures appear in SMILES notation.

As a reminder, the IC50 is the concentration that gives 50% inhibition. With `CC(C)Nc1ncnc2cc(OCc3cccc(S(C)(=N)=O)c3)c(Br)cc12` (racemic) [Example 1.2, (RS)-S-[3-({[6-Bromo-4-(isopropylamino)quinazolin-7-yl]oxy}methyl)phenyl]-S-methylsulphoximide], the IC50 was 4.1 µM in assay [1] and 2.1 µM in assay [2].
With `CC(C)Nc1ncnc2cc(OCc3ccc(S(C)(=N)=O)cc3)c(Br)cc12` (racemic) [Example 2.8, (RS)-S-[4-({[6-Bromo-4-(isopropylamino)quinazolin-7-yl]oxy}methyl)phenyl]-S-methylsulphoximide], the figures for the IC50 in assay [1] and in assay [2] were 15 µM and 4 µM, respectively.
For the molecule `CCS(=N)(=O)c1cccc(COc2cc3ncnc(NC(C)C)c3cc2OC)c1` (racemic) [Example 2.10, (RS)-S-Ethyl-S-[3-({[4-(isopropylamino)-6-methoxyquinazolin-7-yl]oxy}-methyl)phenyl]sulphoximide], the IC50 in assay [1] amounted to 0.4 µM; in assay [2], 0.2 µM.
For `COc1cc2c(NC(C)C)ncnc2cc1OCCCS(C)(=N)=O` (racemic) [Example 3.4, (RS)-S-(4-{[4-(Isopropylamino)-6-methoxyquinazolin-7-yl]oxy}propyl)-S-methyl-sulphoximide], the values for the IC50 in assay [1] and in assay [2] were 15 µM and 10 µM, respectively.
Take `CC(C)Nc1ncnc2cc(OCc3cncc(S(C)(=N)=O)c3)c(Br)cc12` (racemic) [Example 3.7, (RS)-S-[5-({[6-Bromo-4-(isopropylamino)quinazolin-7-yl]oxy}methyl)pyridin-3-yl]-S-methylsulphoximide]: the IC50 in assay [1] was 4 µM; in assay [2] it was 1 µM.

For the origin of these results see patent publication US7863283B2, “Sulphoximine-substituted quinazoline derivatives as immuno-modulators, their preparation and use as medicaments” (Bayer Schering Pharma AG, priority 2008, dated 2011).
